Assay results: ChEMBL document CHEMBL1909046, “DrugMatrix in vitro pharmacology data”

Assays:
[1] = biological target: Beta-3 adrenergic receptor (Homo sapiens, UniProt P13945); test: DRUGMATRIX: Adrenergic beta3 radioligand binding (ligand: [125I] Cyanopindolol); type: cell membranes, HEK293, Membrane; conditions: Not Active = under 50% inhibition at 10 µM
[2] = biological target: Aldo-keto reductase family 1 member B1 (Rattus norvegicus, UniProt P07943); test: biochemical; type: tissue-based, Lens of camera-type eye;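 note: inhibition of aldose reductase enzyme activity, measured with DL-glyceraldehyde as the substrate; in other assays of this panel Not Active means under 50% inhibition at 10 µM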
[3] = DRUGMATRIX: Glutamate, NMDA, Agonism radioligand binding (ligand: [3H] CGP-39653); type: cell membranes, Rattus norvegicus, Wistar, Cerebral cortex, Membrane; conditions: Not Active = under 50% inhibition at 10 µM
[4] = biological target: T1, 3-hydroxy-3-methylglutaryl-coenzyme A reductase (Homo sapiens, UniProt P04035); design: species or system Escherichia coli;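 note: enzyme inhibition assay of HMG-CoA reductase using radiolabeled [14C]HMG-CoA as substrate; in other assays of this panel Not Active means under 50% inhibition at 10 µM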
T1 sequence (P04035 whole entry): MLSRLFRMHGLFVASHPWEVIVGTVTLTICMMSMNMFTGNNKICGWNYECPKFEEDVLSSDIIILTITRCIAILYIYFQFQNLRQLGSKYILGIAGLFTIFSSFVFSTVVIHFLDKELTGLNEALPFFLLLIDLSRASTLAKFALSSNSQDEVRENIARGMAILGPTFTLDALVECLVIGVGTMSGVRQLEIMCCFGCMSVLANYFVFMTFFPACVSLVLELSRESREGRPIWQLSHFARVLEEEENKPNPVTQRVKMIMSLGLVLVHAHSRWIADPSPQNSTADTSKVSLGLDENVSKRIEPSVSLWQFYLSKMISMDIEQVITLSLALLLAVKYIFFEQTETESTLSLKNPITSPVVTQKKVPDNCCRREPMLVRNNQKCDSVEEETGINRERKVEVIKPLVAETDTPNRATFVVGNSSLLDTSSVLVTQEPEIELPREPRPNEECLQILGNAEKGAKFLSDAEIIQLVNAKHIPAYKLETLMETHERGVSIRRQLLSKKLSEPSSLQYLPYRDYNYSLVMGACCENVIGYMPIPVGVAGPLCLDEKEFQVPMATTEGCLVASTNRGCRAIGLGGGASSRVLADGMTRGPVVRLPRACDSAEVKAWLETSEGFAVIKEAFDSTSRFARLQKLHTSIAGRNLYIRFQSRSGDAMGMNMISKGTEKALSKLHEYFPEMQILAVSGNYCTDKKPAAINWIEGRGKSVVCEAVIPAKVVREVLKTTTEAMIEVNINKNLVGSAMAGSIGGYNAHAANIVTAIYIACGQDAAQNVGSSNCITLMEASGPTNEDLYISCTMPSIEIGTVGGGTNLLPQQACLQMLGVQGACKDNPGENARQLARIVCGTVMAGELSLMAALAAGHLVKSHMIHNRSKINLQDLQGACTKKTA

[5] = biological target: T2, Muscarinic acetylcholine receptor M4 (Homo sapiens, UniProt P08173); type: cell membranes, CHO-K1, Membrane; conditions: cho-k1; note: in other assays of this panel Not Active means under 50% inhibition at 10 µM
T2 sequence (P08173 whole entry): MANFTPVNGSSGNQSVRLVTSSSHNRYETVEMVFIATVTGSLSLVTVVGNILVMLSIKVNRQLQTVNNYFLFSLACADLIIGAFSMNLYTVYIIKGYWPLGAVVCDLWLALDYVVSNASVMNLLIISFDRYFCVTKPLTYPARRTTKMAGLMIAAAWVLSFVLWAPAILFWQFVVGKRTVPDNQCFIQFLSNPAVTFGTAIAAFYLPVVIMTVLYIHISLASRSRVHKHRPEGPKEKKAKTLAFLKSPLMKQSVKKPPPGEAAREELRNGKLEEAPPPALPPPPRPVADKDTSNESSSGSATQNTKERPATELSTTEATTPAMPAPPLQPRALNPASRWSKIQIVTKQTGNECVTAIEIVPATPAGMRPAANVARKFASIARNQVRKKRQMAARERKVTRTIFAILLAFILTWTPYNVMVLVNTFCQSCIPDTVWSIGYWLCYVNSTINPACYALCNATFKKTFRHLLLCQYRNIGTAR

[6] = DRUGMATRIX: Nicotinic Acetylcholine radioligand binding (ligand: [125I] Epibatidine); type: cell membranes, Membrane; conditions: imr-32; Not Active = under 50% inhibition at 10 µM
[7] = biological target: T3, Angiotensin-converting enzyme (Oryctolagus cuniculus, UniProt P12822); type: tissue-based, Lung;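 note: enzymatic inhibition of angiotensin-converting enzyme measured with FAPGG as the substrate; in other assays of this panel Not Active means under 50% inhibition at 10 µM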
T3 sequence (P12822 whole entry): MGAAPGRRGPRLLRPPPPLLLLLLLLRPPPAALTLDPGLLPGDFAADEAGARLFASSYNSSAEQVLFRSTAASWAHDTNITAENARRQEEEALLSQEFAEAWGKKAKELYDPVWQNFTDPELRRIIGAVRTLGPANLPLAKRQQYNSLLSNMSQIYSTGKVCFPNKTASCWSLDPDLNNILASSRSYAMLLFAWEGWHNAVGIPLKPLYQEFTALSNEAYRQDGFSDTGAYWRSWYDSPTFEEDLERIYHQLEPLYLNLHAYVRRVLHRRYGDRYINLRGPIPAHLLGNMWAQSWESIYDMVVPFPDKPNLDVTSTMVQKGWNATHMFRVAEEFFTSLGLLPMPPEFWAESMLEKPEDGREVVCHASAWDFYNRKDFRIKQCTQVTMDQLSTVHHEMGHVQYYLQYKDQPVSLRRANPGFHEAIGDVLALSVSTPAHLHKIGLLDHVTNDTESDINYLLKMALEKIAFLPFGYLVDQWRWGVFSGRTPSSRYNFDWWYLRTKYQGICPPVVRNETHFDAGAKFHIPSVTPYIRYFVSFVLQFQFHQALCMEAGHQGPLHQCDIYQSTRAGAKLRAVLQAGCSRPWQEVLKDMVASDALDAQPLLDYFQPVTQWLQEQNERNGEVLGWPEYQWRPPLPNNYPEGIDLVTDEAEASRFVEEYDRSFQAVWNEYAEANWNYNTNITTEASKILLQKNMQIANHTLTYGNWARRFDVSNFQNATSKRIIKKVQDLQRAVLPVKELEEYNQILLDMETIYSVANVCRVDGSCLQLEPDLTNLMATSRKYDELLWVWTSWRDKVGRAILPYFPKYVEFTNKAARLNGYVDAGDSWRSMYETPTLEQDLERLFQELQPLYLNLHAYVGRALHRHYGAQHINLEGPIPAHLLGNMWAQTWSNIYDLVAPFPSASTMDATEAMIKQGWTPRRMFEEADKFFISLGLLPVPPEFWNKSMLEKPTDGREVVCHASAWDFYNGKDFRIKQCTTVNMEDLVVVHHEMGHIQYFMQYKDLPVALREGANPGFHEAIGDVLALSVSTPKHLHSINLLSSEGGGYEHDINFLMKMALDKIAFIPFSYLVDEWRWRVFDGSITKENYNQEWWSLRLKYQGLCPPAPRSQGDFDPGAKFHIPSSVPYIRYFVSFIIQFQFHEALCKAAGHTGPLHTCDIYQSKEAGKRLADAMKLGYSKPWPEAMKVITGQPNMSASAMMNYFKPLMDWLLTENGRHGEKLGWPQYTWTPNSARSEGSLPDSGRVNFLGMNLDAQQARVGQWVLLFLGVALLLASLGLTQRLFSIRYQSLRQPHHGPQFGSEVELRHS

Beta-3 adrenergic receptor, sequence (P13945 whole entry): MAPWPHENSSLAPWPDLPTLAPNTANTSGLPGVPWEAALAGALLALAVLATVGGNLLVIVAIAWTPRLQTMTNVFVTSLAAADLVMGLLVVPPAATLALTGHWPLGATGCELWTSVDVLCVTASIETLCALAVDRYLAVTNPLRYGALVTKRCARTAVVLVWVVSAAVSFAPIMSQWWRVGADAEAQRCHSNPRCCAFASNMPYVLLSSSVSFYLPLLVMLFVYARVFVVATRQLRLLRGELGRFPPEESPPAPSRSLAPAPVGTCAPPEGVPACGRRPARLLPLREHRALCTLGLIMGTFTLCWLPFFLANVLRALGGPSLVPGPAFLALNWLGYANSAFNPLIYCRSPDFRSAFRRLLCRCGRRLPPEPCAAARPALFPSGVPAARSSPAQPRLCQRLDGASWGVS

SMILES | IC50 ([1]; hek293) | IC50 [2] | IC50 [3] | Ki [3] | IC50 [4] | IC50 [5] | IC50 [6] | Ki [6] | IC50 [7] | IC50 ([1]; read-out: IC50) | Ki ([1]; read-out: Ki) | IC50 ([2]; read-out: IC50)
CC(=O)O[C@]1(C(C)=O)CC[C@H]2[C@@H]3C=C(Cl)C4=CC(=O)[C@@H]5C[C@@H]5[C@]4(C)[C@H]3CC[C@@]21C [CYPROTERONE ACETATE] | Not Active | Not Active | Not Active | Not Active | Not Active | Not Active | Not Active | Not Active | Not Active | – | – | –
Nc1nc(N)nc(NC2CC2)n1 [CYROMAZINE] | Not Active | Not Active | Not Active | Not Active | Not Active | Not Active | Not Active | Not Active | Not Active | – | – | –
C#C[C@]1(O)CC[C@H]2[C@@H]3CCC4=Cc5oncc5C[C@]4(C)[C@H]3CC[C@@]21C [DANAZOL] | – | Not Active | Not Active | Not Active | Not Active | Not Active | Not Active | Not Active | Not Active | 17 µM | 12.8 µM | –
CCN[C@@H](C)Cc1cccc(C(F)(F)F)c1 [DEXFENFLURAMINE] | Not Active | Not Active | Not Active | Not Active | Not Active | Not Active | Not Active | Not Active | Not Active | – | – | –
C[C@H](C(=O)O)c1cccc(C(=O)c2ccccc2)c1 [DEXKETOPROFEN] | Not Active | Not Active | Not Active | Not Active | Not Active | Not Active | Not Active | Not Active | Not Active | – | – | –
CN1C(=O)CN=C(c2ccccc2)c2cc(Cl)ccc21 [DIAZEPAM] | Not Active | Not Active | Not Active | Not Active | Not Active | Not Active | Not Active | Not Active | Not Active | – | – | –
CN1C[C@H](C(=O)N[C@]2(C)O[C@@]3(O)[C@@H]4CCCN4C(=O)[C@H](Cc4ccccc4)N3C2=O)C[C@@H]2c3cccc4[nH]cc(c34)C[C@H]21 [DIHYDROERGOTAMINE] | Not Active | Not Active | Not Active | Not Active | Not Active | Not Active | Not Active | Not Active | Not Active | – | – | –
Cc1c(N(C)CS(=O)(=O)[O-])c(=O)n(-c2ccccc2)n1C.[Na+] [DIPYRONE SODIUM] | Not Active | Not Active | Not Active | Not Active | Not Active | Not Active | Not Active | Not Active | Not Active | – | – | –
CC(CCc1ccc(O)cc1)NCCc1ccc(O)c(O)c1 (centres undefined) [DOBUTAMINE] | Not Active | Not Active | Not Active | Not Active | Not Active | Not Active | Not Active | Not Active | Not Active | – | – | –
CCn1cc(C(=O)O)c(=O)c2cc(F)c(N3CCNCC3)nc21 [ENOXACIN] | Not Active | Not Active | Not Active | Not Active | Not Active | Not Active | Not Active | Not Active | Not Active | – | – | –
CCC(=O)O[C@H]1[C@H](O[C@@H]2[C@@H](C)[C@H](O[C@H]3C[C@@](C)(OC)[C@@H](O)[C@H](C)O3)[C@@H](C)C(=O)O[C@H](CC)[C@@](C)(O)[C@H](O)[C@@H](C)C(=O)[C@H](C)C[C@@]2(C)O)O[C@H](C)C[C@@H]1N(C)C [ERYTHROMYCIN PROPIONATE] | Not Active | Not Active | Not Active | Not Active | Not Active | Not Active | Not Active | Not Active | Not Active | – | – | –
C=C(CC)C(=O)c1ccc(OCC(=O)O)c(Cl)c1Cl [ETHACRYNIC ACID] | Not Active | – | Not Active | Not Active | Not Active | Not Active | Not Active | Not Active | Not Active | – | – | 1.15 µM
